This is an account of results in US5403726A, “Enzymatic process for producing a galactosylβ1,3glycal disaccaride using β-galactosidase” (priority 1992, dated 1995).

For this experiment, the target named is β-galactosidase (E. coli) (Escherichia coli, UniProt P00722). The experiment is described as follows: β-galactosidase-mediated coupling reaction with glycal as potential acceptor. In kind it is biochemical. The following applies: donor GalβpNO2 Ph (Compound 1); no reaction product. An excerpt:
To increase the yield of disaccharide, activated donors were used illustratively here in the kinetic method of glycosidic bond formation. [Nilsson, I. Trends Biotechnol., 6:256 (1988) and the citations therein]. Disaccharide formation was initially examined using commercially available E. coli β-galactosidase [EC 3.2.1.23] and 4-nitrophenyl β-galactopyranoside (Compound 1) as the galactose donor and glucal (Compound 2) [Hodgson, Biotechnology, 9:609 (1991)] as the acceptor. The reaction was monitored by thin layer chromatograph (TLC). After no additional nitrophenyl galactoside appeared to be consumed (19-26 hours), the reaction was terminated.
In a typical procedure, Compound 1 (77 mg, 0.26 mmol) and […] (54 mg, 0.36 mmol) were combined at 25° C. with E. coli β-galactosidase (75 units) in 4 mL of a 0.07 M PIPES/0.2M NaOAc/0.1M EDTA solution at pH 6.5. The progress of the reaction was monitored by TLC (silica gel, 7:2:1 iPrOH--NH4 OH--H2 O). After 26 hours, the solvent was removed in vacuo and the residue treated with acetic anhydride (2 mL) and pyridine (2 mL). After an additional 12 hours, the mixture was concentrated in vacuo and the residue purified by silica gel chromatography (2:3 ethyl acetate-hexanes) to afford a 2.3:1 mixture of β-1,3 and β-1,6 isomers (72 mg, 50 percent). […] The position of the glycoside linkage was unambiguously determined by ^1 H NMR decoupling studies. […]

Chain of β-galactosidase (E. coli) (P00722 whole entry): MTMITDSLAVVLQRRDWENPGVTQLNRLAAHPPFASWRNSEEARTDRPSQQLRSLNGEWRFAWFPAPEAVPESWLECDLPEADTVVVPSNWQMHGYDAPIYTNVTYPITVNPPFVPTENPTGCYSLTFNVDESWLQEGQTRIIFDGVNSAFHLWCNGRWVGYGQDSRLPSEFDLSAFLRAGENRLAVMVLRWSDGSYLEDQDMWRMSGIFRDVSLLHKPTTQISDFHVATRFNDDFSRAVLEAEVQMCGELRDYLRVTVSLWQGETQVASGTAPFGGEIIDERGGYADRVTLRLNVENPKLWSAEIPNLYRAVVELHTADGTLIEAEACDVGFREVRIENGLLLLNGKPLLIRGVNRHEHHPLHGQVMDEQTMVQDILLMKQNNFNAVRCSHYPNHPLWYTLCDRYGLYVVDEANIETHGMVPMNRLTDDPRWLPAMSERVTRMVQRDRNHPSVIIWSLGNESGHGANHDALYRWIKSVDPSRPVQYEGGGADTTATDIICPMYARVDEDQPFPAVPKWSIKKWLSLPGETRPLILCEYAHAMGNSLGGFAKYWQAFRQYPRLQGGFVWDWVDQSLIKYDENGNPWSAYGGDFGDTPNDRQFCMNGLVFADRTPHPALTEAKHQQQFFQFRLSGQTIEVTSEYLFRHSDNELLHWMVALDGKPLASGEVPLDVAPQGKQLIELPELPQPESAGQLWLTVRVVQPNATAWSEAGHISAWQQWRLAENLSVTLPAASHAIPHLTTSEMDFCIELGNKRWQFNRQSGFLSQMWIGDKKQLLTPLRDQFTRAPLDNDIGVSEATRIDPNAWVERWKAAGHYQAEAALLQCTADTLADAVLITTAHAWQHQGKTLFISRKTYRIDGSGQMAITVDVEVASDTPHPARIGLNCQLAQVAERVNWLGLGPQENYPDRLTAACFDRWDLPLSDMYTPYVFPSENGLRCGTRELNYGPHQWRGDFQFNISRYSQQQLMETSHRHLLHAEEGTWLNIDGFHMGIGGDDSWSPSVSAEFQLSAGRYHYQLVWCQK

As for `OC[C@H]1OC=C[C@@H](O)[C@H]1O` [Galactal], the “behaviour as potential acceptor in the β-galactosidase coupling reaction (inhibitor)” value is “acted as an inhibitor”.
